Experimental data from patent US6906205B2, “Spiro and dispiro 1,2,4-trioxolane antimalarials” (Medicines for Malaria Venture MMV, priority 2002, dated 2005).
In brackets after ≈: the same amount, converted by molar mass.

system: P. falciparum NF54 strain (sensitive to standard antimalarials); assay: semiautomated microdilution assay, [3H]-hypoxanthine incorporation, NF54 strain; assay type: cell-based, Plasmodium falciparum; conditions: NF54 strain, 72 h incubation
Method in brief: (§1)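 Logit regression analysis was used to estimate IC50 values. Parasites were intraerythrocytic forms from asynchronous stock cultures, and compounds were tested by semiautomated microdilution.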

Row | SMILES | IC50 (ng/ml) NF54
1 | c1ccc(C2CCC3(CC2)OOC2(CCC(c4ccccc4)CC2)O3)cc1 (centres unmarked) [OZ62] | 28 ng/mL (≈ 76.8 nM)
2 | CCCCS(=O)(=O)N1CCC2(CC1)OOC1(O2)C2CC3CC(C2)CC1C3 (centres unmarked) [OZ92] | 0.40 ng/mL (≈ 1.04 nM)
3 | OC1(c2nccs2)CCC2(CC1)OOC1(O2)C2CC3CC(C2)CC1C3 (centres unmarked) [OZ247] | 2.3 ng/mL (≈ 6.33 nM)
4 | c1ccc2c(c1)CCCC21OOC2(O1)C1CC3CC(C1)CC2C3 (centres unmarked) [OZ84] | 2.1 ng/mL (≈ 6.72 nM)
5 | O=C(O)c1ccccc1C(=O)N1CCC2(CC1)OOC1(O2)C2CC3CC(C2)CC1C3 (centres unmarked) [OZ132] | > 10 ng/mL
6 | CC(=O)NC[C@H]1CC[C@]2(CC1)OOC1(O2)C2CC3CC(C2)CC1C3 (some centres unmarked) [OZ262] | 0.84 ng/mL (≈ 2.5 nM)

system: P. falciparum K1 strain (Thailand resistant to chloroquine); assay: semiautomated microdilution assay, [3H]-hypoxanthine incorporation, K1 strain; assay type: cell-based, Plasmodium falciparum; conditions: K1 strain, 72 h incubation
Method in brief: as §1

Row | SMILES | IC50 (ng/ml) K1
7 | c1ccc(C2CCC3(CC2)OOC2(CCC(c4ccccc4)CC2)O3)cc1 (centres unmarked) [OZ62] | 33 ng/mL (≈ 90.5 nM)
8 | CCCCS(=O)(=O)N1CCC2(CC1)OOC1(O2)C2CC3CC(C2)CC1C3 (centres unmarked) [OZ92] | 1.6 ng/mL (≈ 4.15 nM)
9 | OC1(c2nccs2)CCC2(CC1)OOC1(O2)C2CC3CC(C2)CC1C3 (centres unmarked) [OZ247] | 1.8 ng/mL (≈ 4.95 nM)
10 | c1ccc2c(c1)CCCC21OOC2(O1)C1CC3CC(C1)CC2C3 (centres unmarked) [OZ84] | 1.4 ng/mL (≈ 4.48 nM)
11 | O=C(O)c1ccccc1C(=O)N1CCC2(CC1)OOC1(O2)C2CC3CC(C2)CC1C3 (centres unmarked) [OZ132] | 9.8 ng/mL (≈ 23.7 nM)
12 | CC(=O)NC[C@H]1CC[C@]2(CC1)OOC1(O2)C2CC3CC(C2)CC1C3 (some centres unmarked) [OZ262] | 0.63 ng/mL (≈ 1.88 nM)

system: ANKA strain of P. berghei; assay: single dose STI in vivo screen in infected mice; parameters: species or system Plasmodium berghei; conditions: percent reduction in parasitemia day 3 post-infection; single 10 mg/kg po in 3% ethanol and 7% Tween 80; mice
Method in brief: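 Groups of 3-5 Moro SPF or NMRI mice infected with the ANKA strain of P. berghei received a single dose of trioxolane on day one post-infection. The compound was given in 3% ethanol and 7% Tween 80 or in SSV (0.5% w/v CMC, 0.5% v/v benzyl alcohol, 0.4% v/v Tween 80, 0.9% w/v sodium chloride in water). Antimalarial activity was scored as percent reduction in parasitemia on day three and as survival time versus untreated controls. Survival to day 30 counted as cure.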

Row | SMILES | Activity (%) po
13 | c1ccc(C2CCC3(CC2)OOC2(CCC(c4ccccc4)CC2)O3)cc1 (centres unmarked) [OZ62] | 0/NA/0%
14 | CCCCS(=O)(=O)N1CCC2(CC1)OOC1(O2)C2CC3CC(C2)CC1C3 (centres unmarked) [OZ92] | 81%
15 | OC1(c2nccs2)CCC2(CC1)OOC1(O2)C2CC3CC(C2)CC1C3 (centres unmarked) [OZ247] | 57%
16 | c1ccc2c(c1)CCCC21OOC2(O1)C1CC3CC(C1)CC2C3 (centres unmarked) [OZ84] | 92%
17 | O=C(O)c1ccccc1C(=O)N1CCC2(CC1)OOC1(O2)C2CC3CC(C2)CC1C3 (centres unmarked) [OZ132] | 38%
18 | CC(=O)NC[C@H]1CC[C@]2(CC1)OOC1(O2)C2CC3CC(C2)CC1C3 (some centres unmarked) [OZ262] | 96%

same assay, conditions: percent reduction in parasitemia day 3 post-infection; single 10 mg/kg sc in 3% ethanol and 7% Tween 80; mice

Row | SMILES | Activity (%) sc
19 | c1ccc(C2CCC3(CC2)OOC2(CCC(c4ccccc4)CC2)O3)cc1 (centres unmarked) [OZ62] | 0/NA/0%
20 | CCCCS(=O)(=O)N1CCC2(CC1)OOC1(O2)C2CC3CC(C2)CC1C3 (centres unmarked) [OZ92] | 99.98%
21 | OC1(c2nccs2)CCC2(CC1)OOC1(O2)C2CC3CC(C2)CC1C3 (centres unmarked) [OZ247] | 99.85%
22 | c1ccc2c(c1)CCCC21OOC2(O1)C1CC3CC(C1)CC2C3 (centres unmarked) [OZ84] | 99.99%
23 | O=C(O)c1ccccc1C(=O)N1CCC2(CC1)OOC1(O2)C2CC3CC(C2)CC1C3 (centres unmarked) [OZ132] | 40%
24 | CC(=O)NC[C@H]1CC[C@]2(CC1)OOC1(O2)C2CC3CC(C2)CC1C3 (some centres unmarked) [OZ262] | 99.39%

same assay, conditions: percent reduction in parasitemia day 3 post-infection; single po dose in standard suspending vehicle (SSV); mice

Row | SMILES | Activity (%) SSVpo
25 | CCCCS(=O)(=O)N1CCC2(CC1)OOC1(O2)C2CC3CC(C2)CC1C3 (centres unmarked) [OZ92] | 35%
26 | OC1(c2nccs2)CCC2(CC1)OOC1(O2)C2CC3CC(C2)CC1C3 (centres unmarked) [OZ247] | 27%
27 | O=C(O)c1ccccc1C(=O)N1CCC2(CC1)OOC1(O2)C2CC3CC(C2)CC1C3 (centres unmarked) [OZ132] | 0%
28 | CC(=O)NC[C@H]1CC[C@]2(CC1)OOC1(O2)C2CC3CC(C2)CC1C3 (some centres unmarked) [OZ262] | 98%

same assay, conditions: single 10 mg/kg po in 3% ethanol and 7% Tween 80; untreated control 5.6 ± 0.3

Row | SMILES | Survival (days) po
29 | c1ccc(C2CCC3(CC2)OOC2(CCC(c4ccccc4)CC2)O3)cc1 (centres unmarked) [OZ62] | 6.0 days
30 | CCCCS(=O)(=O)N1CCC2(CC1)OOC1(O2)C2CC3CC(C2)CC1C3 (centres unmarked) [OZ92] | 6.7 days
31 | OC1(c2nccs2)CCC2(CC1)OOC1(O2)C2CC3CC(C2)CC1C3 (centres unmarked) [OZ247] | 6.3 days
32 | c1ccc2c(c1)CCCC21OOC2(O1)C1CC3CC(C1)CC2C3 (centres unmarked) [OZ84] | 7.7 days
33 | O=C(O)c1ccccc1C(=O)N1CCC2(CC1)OOC1(O2)C2CC3CC(C2)CC1C3 (centres unmarked) [OZ132] | 6.3 days
34 | CC(=O)NC[C@H]1CC[C@]2(CC1)OOC1(O2)C2CC3CC(C2)CC1C3 (some centres unmarked) [OZ262] | 11.7 days

same assay, conditions: single 10 mg/kg sc in 3% ethanol and 7% Tween 80; untreated control 5.6 ± 0.3

Row | SMILES | Survival (days) sc
35 | c1ccc(C2CCC3(CC2)OOC2(CCC(c4ccccc4)CC2)O3)cc1 (centres unmarked) [OZ62] | 5.0 days
36 | CCCCS(=O)(=O)N1CCC2(CC1)OOC1(O2)C2CC3CC(C2)CC1C3 (centres unmarked) [OZ92] | 10.0 days
37 | OC1(c2nccs2)CCC2(CC1)OOC1(O2)C2CC3CC(C2)CC1C3 (centres unmarked) [OZ247] | 9.0 days
38 | c1ccc2c(c1)CCCC21OOC2(O1)C1CC3CC(C1)CC2C3 (centres unmarked) [OZ84] | 14.7 days
39 | O=C(O)c1ccccc1C(=O)N1CCC2(CC1)OOC1(O2)C2CC3CC(C2)CC1C3 (centres unmarked) [OZ132] | 6.3 days
40 | CC(=O)NC[C@H]1CC[C@]2(CC1)OOC1(O2)C2CC3CC(C2)CC1C3 (some centres unmarked) [OZ262] | 10.0 days

same assay, conditions: single po dose in SSV; untreated control 5.6 ± 0.3

Row | SMILES | Survival (days) SSVpo
41 | CCCCS(=O)(=O)N1CCC2(CC1)OOC1(O2)C2CC3CC(C2)CC1C3 (centres unmarked) [OZ92] | 6.3 days
42 | OC1(c2nccs2)CCC2(CC1)OOC1(O2)C2CC3CC(C2)CC1C3 (centres unmarked) [OZ247] | 6.0 days
43 | O=C(O)c1ccccc1C(=O)N1CCC2(CC1)OOC1(O2)C2CC3CC(C2)CC1C3 (centres unmarked) [OZ132] | 5.7 days
44 | CC(=O)NC[C@H]1CC[C@]2(CC1)OOC1(O2)C2CC3CC(C2)CC1C3 (some centres unmarked) [OZ262] | 12.3 days
